The NIST ThermoML archive (doi:10.1021/je050294+)
Numbers after ± are expanded uncertainties.

conditions: 283.15 K; 101.33 kPa; Liquid

| mass density [kg/m3] | Structure (SMILES) |
| --- | --- |
| 815.11 ± 0.59 | CCC(C)O (stereo not drawn) [butan-2-ol] |
| 878.97 ± 0.55 | C=C1CCC2CC1C2(C)C (stereo not drawn) [β-pinene] |
| 817.48 ± 0.23 | CCCCO [butan-1-ol] |

same assay, conditions: 283.15 K; 101.33 kPa; Liquid; Linear variable-path acoustic interferometer

| speed of sound [m/s] | Structure (SMILES) |
| --- | --- |
| 1266.6 ± 1.7 | CCC(C)O (stereo not drawn) [butan-2-ol] |
| 1355.9 ± 1.8 | C=C1CCC2CC1C2(C)C (stereo not drawn) [β-pinene] |
| 1292.2 ± 1.4 | CCCCO [butan-1-ol] |

same assay, conditions: 298.15 K; 101.33 kPa; Liquid

| mass density [kg/m3] | Structure (SMILES) |
| --- | --- |
| 803 ± 0.6 | CCC(C)O (stereo not drawn) [butan-2-ol] |
| 866.99 ± 0.55 | C=C1CCC2CC1C2(C)C (stereo not drawn) [β-pinene] |
| 806.17 ± 0.23 | CCCCO [butan-1-ol] |

same assay, conditions: 298.15 K; 101.33 kPa; Liquid; Linear variable-path acoustic interferometer

| speed of sound [m/s] | Structure (SMILES) |
| --- | --- |
| 1212.4 ± 1.7 | CCC(C)O (stereo not drawn) [butan-2-ol] |
| 1295 ± 1.8 | C=C1CCC2CC1C2(C)C (stereo not drawn) [β-pinene] |
| 1240.7 ± 1.4 | CCCCO [butan-1-ol] |

same assay, conditions: 313.15 K; 101.33 kPa; Liquid

| mass density [kg/m3] | Structure (SMILES) |
| --- | --- |
| 790.06 ± 0.61 | CCC(C)O (stereo not drawn) [butan-2-ol] |
| 854.89 ± 0.56 | C=C1CCC2CC1C2(C)C (stereo not drawn) [β-pinene] |
| 794.51 ± 0.24 | CCCCO [butan-1-ol] |

same assay, conditions: 313.15 K; 101.33 kPa; Liquid; Linear variable-path acoustic interferometer

| speed of sound [m/s] | Structure (SMILES) |
| --- | --- |
| 1158 ± 1.7 | CCC(C)O (stereo not drawn) [butan-2-ol] |
| 1237.4 ± 1.7 | C=C1CCC2CC1C2(C)C (stereo not drawn) [β-pinene] |
| 1191.4 ± 1.4 | CCCCO [butan-1-ol] |
